Assay results as given in patent US9663561B2, “Methods of treatment of cancer using SRC-modulating peptides” (The University of Toledo, priority 2006, dated 2017).
Each block holds one compound with its values, some of them ahead of it.

How the values were obtained:
PY-17 cells = test: FAK Tyr925 phosphorylation in α1 knockdown cells; format: cell-based, pig; conditions: 1 μM PP2 for 0.5 and 2 h
Description: FIG. 17D. P-11 and PY-17 cells were treated with 1 μM PP2 for 0.5 and 2 h. FAK and Src activation was measured by using the specific antibodies. A representative Western blot is shown, and the same experiments were repeated three times.
(§1) Cells were washed with PBS, solubilized in modified ice-cold radioimmune precipitation assay buffer, and subjected to immunoprecipitation or Western blot analysis. Protein signal was detected using the enhanced chemiluminescence kit and quantified using a Bio-Rad GS-670 imaging densitometer.

SYF and SYF+Src cells = test: Protein tyrosine phosphorylation in SYF and SYF+Src cells; format: cell-based, mouse; conditions: SYF+Src cells
Description: FIG. 9B. Both SYF and SYF+Src cells were treated with 100 μM ouabain for 5 min and analyzed as in A. Representative Western blots of three experiments are shown in both A and B.
(§2) Cells were lysed in RIPA buffer containing 1% Nonidet P40, 0.25% sodium deoxycholate, 150 mM NaCl, 1 mM EDTA, 1 mM phenylmethylsulfonyl fluoride, 1 mM sodium orthovanadate, 1 mM NaF, 10 μg/ml aprotinin, 10 μg/mlleupeptin, and 50 mM Tris-HCl (pH 7.4). Cell lysates were cleared by centrifugation at 16,000×g for […], and the supernatants (1 mg) were either immunoprecipitated with anti-α1 antibody or incubated with different GST-fusion proteins. The complexes were then pulled down by either protein G agarose or glutathione beads (Ma et al., 2000; Haas et al., 2002) and analyzed by Western blot.

LLC-PK1 cells [1] = test: Recruitment of Src to the Na+/K+-ATPase signaling complex (co-immunoprecipitation); format: cell-based, pig; conditions: 1 μM pretreatment 15 min, then 1 μM ouabain 5 min
Description: FIG. 9C Inhibition of Src blocks ouabain-induced recruitment of Src to the Na+/K+-ATPase signaling complex. LLC-PK1 cells were pretreated with 1 μM PP2 or PP3 for 15 min and then exposed to 1 μM ouabain for 5 min. Cell lysates were immunoprecipitated and analyzed. Values are mean±SE of at least four independent experiments. * p<0.05.
as §2

LLC-PK1 cells [2] = test: Sensitivity of LLC-PK1-derived cells to selection agents; format: cell-based, pig
Description: Another batch of cells was co-transfected with pEYFP together with the pSuppressor-A4 siRNA and pBade-puro so that the co-expressed EYFP could be used as a marker to pick clones. Empty vector (pSuppressor) or A1 siRNA-transfected cells were co-selected and used as a control. The cells were selected with puromycin (1 μg/ml) 24 h posttransfection. Puromycin-resistant colonies were cloned and expanded. To rescue the Na+/K+-ATPase knockdown cells, cells were transfected with the pRc/CMV-α1AACm1. Selection was initiated with 3 μM ouabain because untransfected cells were very sensitive to ouabain. After about 1 week, ouabain-resistant colonies were isolated and expanded into stable cell lines in the absence of ouabain. G418 was not used because these cells are resistant to it, requiring more than 3 mg/ml to kill the untransfected cells.

[3] = molecular target: T1, purified pig kidney Na+/K+-ATPase (Sus scrofa, UniProt P05024); test: ATPase activity of purified pig kidney Na+/K+-ATPase; format: biochemical
T1 construct: Na+/K+-ATPase was purified from pig kidney outer medulla using the Jorgensen method; from tissue; host or cells: pig kidney outer medulla
Excerpt: Src, without the first 85 amino acid residues, was purified from sf-9 cells as described (Ma et al., 2000) and used in the initial binding assays to ensure that Src binds to the Na+/K+-ATPase, but not the lipid composition in the purified Na+/K+-ATPase preparation. In subsequent experiments (e.g., phosphorylation and activity assays), purified recombinant full-length Src from Upstate Biotechnology was used. Na+/K+-ATPase was purified from pig kidney outer medulla using the Jorgensen method (Xie et al., 1996) and the preparations with specific activities between 1200 and 1400 μmol Pi/mg/h were used.
GST fusion proteins or His-tagged proteins were expressed in Escherichia coli BL21 and purified on glutathione beads or nickel column.

[4] = molecular target: T2, Na+/K+-ATPase/Src complex (Sus scrofa, UniProt P05024); test: Src pY418 phosphorylation of the Na+/K+-ATPase/Src complex (Western blot); format: biochemical
T2 construct: Na+/K+-ATPase was purified from pig kidney outer medulla using the Jorgensen method; tissue Upstate Biotechnology (Src only); host or cells: pig kidney outer medulla (Na+/K+-ATPase)
Description: (§3) The Src kinase activity was assayed using a commercial kit (Haas et al., 2000). To determine how Na+/K+-ATPase affects Src kinase activity, the purified Src (4.5 U) was incubated with 5 μg of the purified Na+/K+-ATPase in the Src assay buffer for 30 min at room temperature. Afterward, both control Src or the Na+/K+-ATPase-bound Src were exposed to 10 μM ouabain and Src kinase activity was determined. In other experiments, the Src pY418 was measured by anti-pY418 antibody to indicate Src activation (Ma et al., 2000). To do so, the purified Src (4.5 U) was incubated with different amounts of the purified Na+/K+-ATPase or GST-Na+/K+ATPase constructs in phosphate-buffered saline (PBS) for 30 min at 37° C. Afterward, 2 mM ATP/Mg2+ was added. The reaction continued for 5 min at 37° C. and was stopped by addition of SDS sample buffer.
(§4) The purified Na+/K+-ATPase was solubilized in 1% Triton X-100 PBS and centrifuged at 100,000×g for 30 min. The supernatant was collected for the binding assay. GST-fusion proteins (5 μg) were conjugated on glutathione beads and incubated with the solubilized Na+/K+-ATPase in 500 μl PBS in the presence of 0.5% Triton X-100 at room temperature for 30 min. The beads were washed with the same buffer for four times. The bound Na+/K+ATPase was resolved on 10% SDS-PAGE and detected by Western blot. Reciprocal binding assay using GST-Na+/K+-ATPase constructs (5 μg) and purified Src lacking of first 85 amino acids (200 ng) or His-tagged Src constructs (100 ng) was done similarly. To test if native Na+/K+-ATPase binds Src, the above experiments were repeated in the absence of Triton X-100. To make the Na+/K+-ATPase/Src complex, 2-5 μg of the purified Na+/K+ATPase was incubated with 4.5 U of Src (˜10 ng) in PBS in the absence of Triton X-100 at room temperature for 30 min. The complex was either used for the experiments directly as indicated or collected by centrifugation at 100,000×g for 30 min.

Src [5] = molecular target: T3, Src (Sus scrofa, UniProt K7GM45); test: Src pY418 in LLC-PK1 cells transiently transfected with YFP-tagged constructs; format: cell-based, pig; conditions: transient transfection 24 h
T3 construct: endogenous in cells; host or cells: LLC-PK1 (pig kidney)
Description: FIG. 22A. LLC-PK1 cells were transient-transfected with YFP-tagged ND1, ND, and CD3 for 24 h.
Cells were then lysed in RIPA buffer and probed for pY418. YFP were also transient-transfected into LLC-PK1 cells as control.

Src [6] = test: In vitro binding assay of GST-Na+/K+-ATPase constructs with purified or His-tagged Src; set-up: species or system chicken
Description: (§5) The preparation of chicken c-Src lacking the SH4 domain and GST-Src mutants were done (Ma et al., 2000). GST-NT (amino acid residue 6-90) [SEQ ID NO: 51], GST-CD2 (amino acid residue 152-288) [SEQ ID NO 52], and GST-CD3 (amino acid residue 350-785) [SEQ ID NO: 53] expression vectors were constructed based on the sequence of pig kidney Na+/K+-ATPase α1 subunit (see FIG. 3A).
as §4

Src [7] = molecular target: T4, Src (Gallus gallus, UniProt P00523); test: as above; set-up: species or system chicken; conditions: purified Src lacking first 84 amino acids, 200 ng
T4 construct: His; made in house; host or cells: sf-9 cells (Src without the first 85 residues); Escherichia coli BL21 (His-tagged constructs)
Description: as §5, §4

Src [8] = molecular target: T5, Src (Homo sapiens, UniProt P12931); test: Src pY418 autophosphorylation / activity of purified recombinant Src; format: biochemical; conditions: recombinant Src (4.5 U) incubated 30 min, then 2 mM ATP/Mg2+ 5 min
T5 construct: purified recombinant full-length Src from Upstate Biotechnology was used; purchased Upstate Biotechnology (Lake Placid, N.Y.)
Description: as §3
The reaction was stopped by adding 5× loading buffer. pY418 was probed to measure Src activation.

Src [9] = molecular target: T3, Src; test: GST-CD3 pulldown of Src from LLC-PK1 cell lysates; format: binding, pig; conditions: 1 mg LLC-PK1 cell lysates
Description: FIG. 4C. A Western blot showing that Src was pulled down by GST-CD3 of Na+/K+-ATPase (Na/K) and H+/K+-ATPase (H/K), but not SERCA from 1 mg LLC-PK1 cell lysates.
as §2

purified Na+/K+-ATPase = molecular target: T6, purified Na+/K+-ATPase (Sus scrofa, UniProt P05024); test: In vitro GST pulldown binding assay with purified Na+/K+-ATPase; set-up: species or system pig; conditions: GST-tagged Src truncations and purified Na+/K+-ATPase
T6 construct: Na+/K+-ATPase was purified from pig kidney outer medulla using the Jorgensen method; from tissue; host or cells: pig kidney outer medulla
Description: as §4

Src and ERK1/2 = test: Activation of Src and ERK1/2 in P-11, A4-11, PY-17 and AAC-19 cells (Western blot); format: cell-based, pig; conditions: for increase in SrcTyr(P)418: n=3
Description: FIGS. 18A and 18B. Cells were exposed to 100 nM ouabain for either 5 or 15 min, and the cell lysates (50 μg/lane) were analyzed by Western blot for active Src or active ERK1/2. Blots were probed first with anti-Tyr(P)^418-Src or anti-pERK antibody, then stripped, and reprobed for total Src or ERK1/2 to ensure equal loading.
FIGS. 18 C and 18D. Cells were treated with indicated concentrations of ouabain for 5 min, and total cell lysates were analyzed for Tyr(P)^418-Src and total Src or pERK1/2 and total ERK1/2 as in FIGS. 18A and 18B. A representative Western blot and combined quantitative data are shown. The quantitative data (relative ratio of pSrc/Src or pERK/ERK) from three independent experiments (mean±S.E.) were calculated relative to the control condition of P-11 cells. *, p<0.05 versus the respective control condition of each cell line. con, control.
as §1

Compound: CC(C)(C)n1nc(-c2ccc(Cl)cc2)c2c(N)ncnc21 [PP2]
increase in FAK Tyr(P)925 in knockdown cells (PY-17 cells): sensitive | block of ouabain-induced protein tyrosine phosphorylation (SYF and SYF+Src cells): able to block

Compound: Nc1ncnc2c1cnn2-c1ccccc1 [PP3]
block of ouabain-induced recruitment of Src to the Na+/K+-ATPase (LLC-PK1 cells [1]): failed to block

Compound: CN[C@@H]1[C@@H](O)[C@@H](O[C@@H]2[C@@H](O)[C@H](O[C@H]3O[C@H]([C@@H](C)O)[C@@H](O)[C@H](O)[C@H]3N)[C@@H](N)C[C@H]2N)OC[C@]1(C)O [Peptide G418, G418]
concentration required to kill the untransfected cells (LLC-PK1 cells [2]; untransfected cells): more than 3 mg/ml

Compound: CN(CC[C@H](N)CC(=O)N[C@H]1C=C[C@H](n2ccc(N)nc2=O)O[C@@H]1C(=O)O)C(=N)N [blasticidin]
sensitivity of knockdown cells (LLC-PK1 cells [2]; 15 μg/ml): sensitive to blasticidin

Compound: [O]=[V]([O-])([O-])[O-] [vanadate]
inhibition of the ATPase activity ([3]; 100 μM vanadate): complete inhibition | inhibition of the ATPase activity ([3]; 10-100 μM vanadate): completely inhibited the ATPase activity | Src pY418 of Na+/K+-ATPase/Src complex ([4]; 10-100 μM vanadate): no effect on Src pY418

Compound: CD3: YFP-tagged cytosolic domain 3 of Na+/K+-ATPase α1
Src phosphorylation (pY418) in LLC-PK1 cells (Src [5]): decrease Src phosphorylation

Compound: GST-CD2: GST fusion of pig kidney Na+/K+-ATPase α1 amino acid residue 152-288
interaction with His-tagged SH3SH2 domain of Src (Src [6]): interacted with the SH3SH2 domain | interaction with His-tagged kinase domain of Src (Src [6]): not the kinase domain | interaction with Src (Src [7]): interacted

Compound: GST-CD3: GST fusion of pig kidney Na+/K+-ATPase α1 amino acid residue 350-785
Src pY418 (autophosphorylation at Tyr418) (Src [8]): dose-dependent inhibition | interaction with His-tagged SH3SH2 domain of Src (Src [6]): not the SH3SH2 domain | interaction with His-tagged kinase domain of Src (Src [6]): interacted with the kinase domain | interaction with Src (Src [7]): interacted | pulldown of Src from LLC-PK1 cell lysates (Src [9]): pulled down

pulldown of Src from LLC-PK1 cell lysates (Src [9]): pulled down Src
Compound: GST-H+/K+-CD3: GST fusion of the CD3 from rat gastric H+/K+-ATPase

Compound: LRLEVKLGQGCFGEVWMGTWNGTTRVAIKTLKPGTMSPEAFLQEAQVMKKLRHE [KD1]
activation of Na+/K+-ATPase-inhibited Src ([4]; competing the binding motif for Src): effective in activating the Na+/K+-ATPase-inhibited Src | binding to Na+/K+-ATPase (purified Na+/K+-ATPase): binds Na+/K+-ATPase

Compound: epidermal growth factor: epidermal growth factor
increase in SrcTyr(P)418 (Src and ERK1/2; P-11 cells): 2.5±0.3 fold | stimulation of ERK1/2 (Src and ERK1/2; PY-17 cells): able to stimulate ERK1/2 | increase in SrcTyr(P)418 (Src and ERK1/2; PY-17 cells): 1.7±0.2 fold
